Consider 9 molecules from PubChem BioAssay (NCI).

What all share (test): NCI anticancer screen, dose series, 48 h
Experiment [1] relates to CAKI-1 renal.
The subject of experiment [2] is HCC-2998 colon.
Experiment [3] has as its system HCT-116 colon.
Experiment [4] concerns LOX IMVI melanoma.
For experiment [5], the system named is MCF7 breast.
Experiment [6] deals with MDA-MB-435.
Experiment [7] deals with OVCAR-8 ovarian.
Experiment [8] relates to RPMI-8226 leukemia.
Experiment [9] relates to SF-268 CNS.
Experiment [10] has as its system SF-295 CNS.
Experiment [11] deals with SF-539 CNS.
Experiment [12] has as its system SK-MEL-2 melanoma.
Experiment [13] relates to SK-MEL-5 melanoma.
In experiment [14] the test system is SK-OV-3 ovarian.
Experiment [15] has as its system SN12C renal.
Experiment [16] concerns U251 CNS.
The subject of experiment [17] is HOP-92 NSCLC.

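Grown in 96-well plates, cells were treated for 48 hours with each compound at five concentrations. Insufficient inhibition: endpoint recorded as highest concentration tested. TGI is the concentration that stops growth completely.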 Where only a bound is given, the exact number is not on record here.

`COc1ccccc1NC(=S)Nc1cc(C)cc(C)n1`: the TGI in experiment [1], in experiment [2], in experiment [3], in [4], in experiment [5] and in [6] was over 100 µM in each case. Further, the TGI in experiment [7], in [8], in experiment [9], in experiment [10], in [11] and in [12] was over 100 µM in each case. In addition, the TGI in [13], in experiment [14], in [15] and in experiment [16] was over 100 µM throughout.
Take `CCOC(=O)N(NC(=O)NC(C)C)c1ccccc1`: the TGI in [1], in experiment [2], in experiment [3], in experiment [17], in [4] and in [5] was over 100 µM each time. For the same molecule, the TGI in experiment [7], in [10], in experiment [11], in [12], in experiment [13] and in experiment [14] was over 100 µM in each case. The TGI in experiment [15] and in [16] was over 100 µM throughout.
As to `CN1CCN(c2ccc3[nH]c(-c4cc(O)c5c(nc(CO)n5C)c4O)nc3n2)CC1`, the TGI in experiment [1] is over 100 µM; in experiment [2], over 100 µM; in experiment [3], over 100 µM; in experiment [17], over 100 µM; in experiment [4], 37.9 µM; in experiment [6] it was 48.3 µM. In addition, the TGI is over 100 µM in [7]; over 100 µM in experiment [8]; over 100 µM in [9]; over 100 µM in [10]; 44 µM in [11]; 51.7 µM in experiment [12]. The TGI in experiment [14] is over 100 µM; in experiment [15], 36.8 µM; in [16], 44.2 µM.
`O=C1N=C(SC2OC(CO)C(O)C(O)C2O)S/C1=C\c1ccccc1` (centres undefined): the TGI in experiment [1], in experiment [2], in [4], in [5], in experiment [6] and in experiment [7] was over 100 µM each time. Besides, the TGI in experiment [8], in experiment [9], in experiment [10], in experiment [11], in experiment [12] and in experiment [13] was over 100 µM in each case. For the same molecule, the TGI in [14] and in experiment [15] was over 100 µM in each case.
Consider `COc1ccc2c(c1)C(=O)Cc1ccccc1CC2`, for which the TGI in [1], in experiment [2], in [3], in [17], in experiment [4] and in experiment [7] was over 100 µM each time. Also, the TGI in experiment [8], in experiment [9], in experiment [10], in experiment [11], in [12] and in [13] was over 100 µM throughout. For the same molecule, the TGI in experiment [14], in [15] and in experiment [16] was over 100 µM throughout.
For `CCOCc1c(C)cc(C)c(C2C(C(=O)c3ccccc3)N3c4ccccc4C=CC3C2(C#N)C(=O)OCC)c1C` (centres undefined), the TGI in experiment [1] was over 100 µM; in [2], 47.8 µM; in [3], over 100 µM; in experiment [4], over 100 µM; in experiment [5] it was over 100 µM; in experiment [6], over 100 µM. Also, the TGI in experiment [8] was over 100 µM; in [9] it was over 100 µM; in experiment [10], over 100 µM; in experiment [13] it was 33.2 µM; in experiment [15], over 100 µM; in [16], over 100 µM.
For `O=C1c2ccccc2C(=O)c2c1cc(S(=O)(=O)O)c(O)c2O`, the TGI in [1], in experiment [2], in [3], in experiment [17], in [4] and in experiment [7] was over 100 µM each time. Also, the TGI in [8], in experiment [9], in [10], in experiment [11], in experiment [12] and in experiment [14] was over 100 µM throughout. The TGI in experiment [15] and in experiment [16] was over 100 µM in each case.
With `COC(=O)CC(c1cn(S(=O)(=O)c2ccc(C)cc2)c2ccccc12)C1C[C@@H](C(=O)OC)N(C(=O)OC(C)(C)C)C1=O` (some centres undefined), the TGI in [1], in experiment [3], in [4], in experiment [5], in [6] and in experiment [7] was over 100 µM each time. For the same molecule, the TGI was 35.4 µM in experiment [8]; over 100 µM in [9]; over 100 µM in experiment [10]; 65.6 µM in experiment [11]; over 100 µM in experiment [12]; over 100 µM in experiment [13]. In addition, the TGI in [15] and in [16] was over 100 µM each time.
Take `O=c1c2ccccc2[nH]c2c(Cl)cc(Cl)c(NC3CCCCC3)c12`: the TGI in [1] is 83.2 µM; in [2] it was 89.9 µM; in [3], over 100 µM; in experiment [4], over 100 µM; in [5] it was 76.2 µM; in experiment [6], 43.5 µM. The TGI was 44.8 µM in experiment [7]; 85 µM in experiment [8]; over 100 µM in [10]; 57.8 µM in experiment [11]; 41.9 µM in experiment [12]; over 100 µM in experiment [13]. For the same molecule, the TGI is over 100 µM in experiment [14], 55.3 µM in experiment [15] and 36.9 µM in [16].
